Source: patent US7989442B2, “Progesterone receptor modulators” (N.V. Organon, priority 2006, dated 2011)

Experiments:
mature cyclic rats = assay: Ovulation inhibition in rat after oral administration (in vivo progestagenic activity); conditions: 96 h, minimal active dose: average number of ova reduced by 60% relative to placebo, oral administration for 1 complete cycle (4 days), read-out: MAD
Experimental: Ovulation inhibition after oral administration of the compounds of the invention was studied in mature cyclic rats. Animals were treated with test compound (oral administration) for 1 complete cycle (4 days, from oestrus to pro-oestrus) and the number of ova in the oviduct was microscopically assessed at autopsy in the morning of the next (expected) oestrus. The average number of ova per rat was calculated; the minimal active dose (MAD) is defined as the level at which the average number of ova is reduced by 60% relative to placebo-treated animals.

melting point [°C] | Compound | minimal effective dose (mature cyclic rats) [mg/kg]
– | N#Cc1cc2c(cc1F)Oc1ccccc1[C@@H]1[C@@H](NC(=O)C(F)(F)F)CCCN21 (stereo in doubt) [Example 2, (−)-(cis)-N-(7-cyano-8-fluoro-1,3,4,14b-tetrahydro-2H-dibenzo [b,f]pyrido[1,2-d][1,4]oxazepin-1-yl)-2,2,2-trifluoroacetamide] | 0.014
– | N#Cc1c(F)cc2c(c1Cl)N1CCC[C@H](NC(=O)C(F)(F)F)[C@H]1c1ccccc1O2 (stereo in doubt) [Example 3, (−)-(cis)-N-[6-chloro-7-cyano-8-fluoro-1,3,4,14b-tetrahydro-2H-dibenzo [b,f]pyrido[1,2-d][1,4]oxazepin-1-yl]-2,2,2-trifluoroacetamide] | 0.08
– | N#Cc1c(F)cc2c(c1C#N)N1CCC[C@H](NC(=O)C(F)(F)F)[C@H]1c1ccccc1O2 (stereo in doubt) [Example 4, (−)-(cis)-N-(6,7-dicyano-8-fluoro-1,3,4,14b-tetrahydro-2H-dibenzo [b,f]pyrido[1,2-d][1,4]oxazepin-1-yl)-2,2,2-trifluoroacetamide] | 0.02
174 to 175 | N#Cc1c(F)cc2c(c1Cl)N1CCC[C@H](NC(=O)C(F)(F)F)[C@H]1c1ccc(F)cc1O2 (stereo in doubt) [Example 5, (−)-(cis)-N-(6-chloro-7-cyano-8,12-difluoro-1,3,4,14b-tetrahydro-2H-dibenzo [b,f]pyrido[1,2-d][1,4]oxazepin-1-yl)-2,2,2-trifluoroacetamide] | ≤ 0.025
– | CC(=O)N[C@H]1CCCN2c3c(cc(F)c(C#N)c3Cl)Oc3cccc(F)c3[C@H]12 (stereo in doubt) [Example 6, (−)-(cis)-N-(6-chloro-7-cyano-8,14-difluoro-1,3,4,14b-tetrahydro-2H-dibenzo [b,f]pyrido[1,2-d][1,4]oxazepin-1-yl)acetamide] | < 0.02
– | N#Cc1c(F)cc2c(c1Cl)N1CCC[C@H](NC(=O)C(F)(F)F)[C@H]1c1cccc(F)c1O2 (stereo in doubt) [Example 7, (−)-(cis)-N-(6-chloro-7-cyano-8,11-difluoro-1,3,4,14b-tetrahydro-2H-dibenzo [b,f]pyrido[1,2-d][1,4]oxazepin-1-yl)-2,2,2-trifluoroacetamide] | 0.025
– | N#Cc1cc2c(cc1F)Oc1cccc(F)c1[C@@H]1[C@@H](NC(=O)C(F)(F)F)CCCN21 (stereo in doubt) [Example 8, (−)-(cis)-N-(7-cyano-8,14-difluoro-1,3,4,14b-tetrahydro-2H-dibenzo [b,f]pyrido[1,2-d][1,4]oxazepin-1-yl)-2,2,2-trifluoroacetamide] | 0.01
– | N#Cc1c(F)cc2c(c1Cl)N1CCC[C@H](NC(=O)C(F)(F)F)[C@H]1c1c(F)cccc1O2 (stereo in doubt) [Example 9, (−)-(cis)-N-(6-chloro-7-cyano-8,14-difluoro-1,3,4,14b-tetrahydro-2H-dibenzo [b,f]pyrido[1,2-d][1,4]oxazepin-1-yl)-2,2,2-trifluoroacetamide] | < 0.02
– | CC(=O)c1cccc2c1N1CCC[C@H](NC(=O)C(F)(F)F)[C@H]1c1ccccc1O2 [eutomer of example 52 of WO03/ 084963, reference compound] | > 4
– | C=Cc1cccc2c1N1CCC[C@H](NC(=O)C(F)(F)F)[C@H]1c1ccccc1O2 [eutomer of example 54 of WO03/ 084963, reference compound] | > 4
– | N#Cc1cc(F)cc2c1N1CCC[C@H](NC(=O)C(F)(F)F)[C@H]1c1ccccc1O2 [eutomer of example 58 of WO03/ 084963, reference compound] | 0.38
– | N#Cc1ccc2c(c1)N1CCC[C@H](NC(=O)C(F)(F)F)[C@H]1c1ccccc1O2 [eutomer of example 63 of WO03/ 084963, reference compound] | ~4
– | CC(=O)N[C@H]1CCCN2c3c(ccc(Cl)c3Cl)Oc3ccccc3[C@H]12 [example 47 of WO03/ 084963, reference compound] | > 4
– | CC(=O)c1cc(F)cc2c1N1CCC[C@H](NC(=O)C(F)(F)F)[C@H]1c1ccccc1O2 [example 57 of WO03/ 084963, reference compound] | > 4
– | C=Cc1cc(F)cc2c1N1CCC[C@H](NC(=O)C(F)(F)F)[C@H]1c1ccccc1O2 [example 59 of WO03/ 084963, reference compound] | > 4
– | Cc1cc(F)cc2c1N1CCC[C@H](NC(=O)C(F)(F)F)[C@H]1c1ccccc1O2 [example 60 of WO03/ 084963, reference compound] | ~1
